Where “and” joins values, the source holds several entries; their conditions need not be identical. Equal values may be shown once.

The assay has as its target T1, NS3 (West Nile virus, UniProt K4FQI5).
T1 sequence (K4FQI5 whole entry): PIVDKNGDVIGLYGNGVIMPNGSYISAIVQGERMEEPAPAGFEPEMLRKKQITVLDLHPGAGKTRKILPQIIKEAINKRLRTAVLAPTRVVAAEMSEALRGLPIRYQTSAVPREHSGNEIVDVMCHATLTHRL
The experiment in a line: Functional biochemical assay to identify treatments for viral infectious disease that targets West Nile NS2B-NS3 protease. Utilizing a direct enzyme activity measurement method, reading the fluorescence intensity is used to characterize the relative potency of inhibitors as IC50. On the set-up: species or system NY-99.
Turning to `O=C(NCC(F)F)[C@H](Nc1ccc2c(c1)CNC2)c1cc(Cl)cc(C2CC2)c1`, the IC50 (commonly the point on the concentration scale where inhibition reaches its midpoint) is 129 nM (2×) and 840 nM. With `O=C(Nc1ccc2c(c1)CNC2)c1cccc(-c2cnco2)c1` the figure was 38400 nM; with `Cn1cc2cc(Cl)cc(C(=O)Nc3ccc4c(c3)CNC4)c2n1`, > 24900 nM. Turning to `CNC(=O)[C@H](Nc1ccc2c(c1)CNC2)c1cc(Cl)cc(C2CC2)c1`, the midpoint of inhibition, the IC50, lay at 447 nM. The molecule `N#C[C@H](Nc1ccc2c(c1)CNC2)c1cc(Cl)cc(C2CC2)c1` displayed an IC50 of 59000 nM.

As to `Clc1cc(CNc2ccc3c(c2)CNC3)c2cn[nH]c2c1`, the IC50 worked out at 46100 nM. For `O=C(NC1CCOCC1)[C@H](Nc1ccc2c(c1)CNC2)c1cc(Cl)cc(C2CC2)c1`, the IC50 was 186 nM.

Consider `Cn1cc(CNC(=O)[C@H](Nc2ccc3c(c2)CNC3)c2cc(Cl)cc(C3CC3)c2)cn1`, for which the IC50 came to 1080 nM. In the case of `Cn1cc(CCc2nc3c(C(=O)Nc4ccc5c(c4)CNC5)cc(Cl)cc3[nH]2)cn1` it was 44500 nM; in that of `O=C(Nc1ccc2c(c1)CNC2)c1cc(F)cc2[nH]ncc12`, 1420 nM; in that of `Cc1c(C(=O)Nc2cc([C@H]3CCOC3)ccn2)cc(C2CC2)n1C`, 2680 nM. Turning to `O=C(Nc1ccc2c(c1)CNC2)c1cc(Cl)cc2ccncc12`, half-maximal inhibition (IC50) was put at 9680 nM. With `O=C1Cc2c(cc(Br)cc2C(=O)Nc2ccc3c(c2)CNC3)N1` the figure was 3180 nM. Regarding `CC(C)NC(=O)[C@H](Nc1ccc2c(c1)CNC2)c1cc(Cl)cc2[nH]c(-c3ccccc3)nc12`, the IC50 is 280 nM and 286 nM and 152 nM and 255 nM.

In turn, `O=C(Nc1ccc2c(c1)CNC2)c1cc(Cl)cc2cn[nH]c12` registered an IC50 of 7830 nM. In turn, `C=CC[C@H]1NCc2cc(NC(=O)c3cccc4c3CC(=O)N4)ccc21` showed an IC50 of 8030 nM.

As for `O=C(Nc1ccc2c(c1)CNC2)c1cc(Br)cc2[nH]c(=O)[nH]c12`, the IC50 came to 4670 nM. In turn, `Clc1cc([C@@H]2C[C@H]2c2cccc(C3CCNCC3)c2)c2cn[nH]c2c1` returned an IC50 of 10900 nM. The molecule `Cc1c(C(=O)Nc2cc(-c3cccnc3)ccn2)cc(C2CC2)n1C` yielded an IC50 of 12800 nM.

Regarding `O=C(NCC(F)F)[C@H](Nc1ccc2c(c1)CNC2)c1cc(F)cc2[nH]ccc12`, the concentration for half-maximal inhibition (IC50) came out at 768 nM. Regarding `Cc1nc2c(C(=O)Nc3ccc4c(c3)CNC4)cc(Cl)cc2[nH]1`, the IC50 is > 12400 nM. As to `O=C(NCCC1CC1)[C@H](Nc1ccc2c(c1)CNC2)c1cc(Cl)cc(C2CC2)c1`, inhibition was half-maximal at 698 nM (IC50). `C=CC[C@H]1NCc2cc(NC(=O)c3cc(F)cc4[nH]ncc34)ccc21` showed an IC50 of 4140 nM. `O=C(Nc1cc(Br)c2c(c1)CNC2)c1cc(F)cc2[nH]ncc12`: the IC50 was 915 nM and 957 nM.

Take `O=C(NCC(F)F)[C@H](Nc1ccc2c(c1)CNC2)c1cc(F)cc2[nH]ncc12`: the IC50 came to 247 nM. In the case of `O=C1Cc2c(cc(F)cc2C(=O)Nc2ccc3c(c2)CNC3)N1` it was 537 nM and 576 nM; in that of `C=CC[C@H]1NCc2cc(N[C@H](C(=O)NC(C)C)c3cc(Cl)cc4[nH]ncc34)ccc21`, 886 nM; in that of `O=C(NC1CCOCC1)[C@H](Nc1ccc2c(c1)CNC2)c1cc(Cl)cc2[nH]ncc12`, 115 nM.

In turn, `O=C(Nc1ccc2c(c1)CNC2)c1cc(F)c2[nH]ccc2c1` returned an IC50 of 20100 nM. For `O=C(Nc1ccc2c(c1)CNC2)c1cc(F)cc2c1CCC2`, the IC50 came to 4410 nM. With `Cc1cccc(-c2nc3c(C(=O)Nc4ccc5c(c4)CNC5)cc(Cl)cc3[nH]2)c1O` the figure was 17400 nM; with `O=C(Nc1ccc2c(c1)CNC2)c1cccc2[nH]c(=O)[nH]c12`, 1470 nM.

Molecule `CCOCCNC(=O)[C@H](Nc1ccc2c(c1)CNC2)c1cc(Cl)cc2[nH]ncc12` registered an IC50 of 465 nM. For the molecule `O=C1Cc2cc(C(=O)Nc3ccc4c(c3)CNC4)ccc2N1`, the IC50 was determined as 16700 nM. In the case of `O=C(Nc1ccc2c(c1)CNC2)c1cc(F)cc2[nH]c(-c3ccccc3)nc12` it was 16000 nM. `O=C(Nc1ccc2c(c1)CNC2)c1cc(Cl)cc2nn(-c3ccccc3)nc12` showed an IC50 of 21500 nM.

Consider `O=C(Nc1cc2c(cc1Br)CNC2)c1cc(F)cc2[nH]ncc12`, for which the IC50 was 1250 nM.

Source of the values: ChEMBL document CHEMBL5604061, “ASAP - WNV NS2B-NS3 protease fluorescence dose response” (2024).
